{"source": "patent US20090131539A1", "about": "(priority 2005, published 2009)", "system": "Varroa mites", "test": "Test set-up 2004: honeybee colonies infested with Varroa mites, count of mites fallen down in the hive", "assay_type": "in vivo, Varroa destructor or Varroa jacobsoni", "experimental": "For the test set-up 2004 two bee colonies (A and B) were chosen, which were not used for honey production because of the medium applied for subsequent evaluation of residues and also because colony B was a swarming colony. Each colony consisted of approx. 25,000 animals. Both colonies were housed each in two so-called ‘Herold’ or ‘Zeitler’ hives with 10 frames. Their infestation, colony size, brood and general state was examined and approved.\nIn the beginning only hive A was treated with the mixture, hive B remained untreated in order to gain reference data. Over a period of 3½ months seven treatments took place with a longer break period of more than 30 days between two treatment cycles. At the end, two treatments with Perizin® were carried out in order to check on remaining mite infestation.\nApprox. […] The hive was opened and from the top the medium was finely distributed with the lance at 5 cm intervals into the spaces between the frames. First the lower than immediately the upper frame was treated.\nBefore the hive was covered again two minutes were allowed for aeration. The time needed for treatment of each hive was one to two minutes (without aeration).\nIn order to ascertain the amount of mites fallen down in the hive the floor boards of both hives (A and B) were lined entirely with two ‘diapers’ and covered with Vaseline coated paper. This was done in order to make sure that mites which might have been still alive were prevented from running away. This process was repeated after every mite count.\nThe colonies C to L represented reference colonies and served to ascertain the Varroa density at the location (those hives were only lined with diapers). As those were predominantly migrating colonies they were not available throughout the whole duration of the treatment, but they still represent the general situation.\nEspecially as many apiarists relocate their hives there is always infestation with Varroa in spite of preventive measures taken. When recording the mites found amounts of 50 animals were counted exactly.\nThe course of the test is outlined here in note form: […]", "data": [{"smiles": "O=CO", "note": "[formic acid]", "values": [{"measurement": "count of mites fallen down in the hive", "setting": "reference colony C, check-up 6 Sep. 2004, after formic acid (60%) evaporation of 30 Aug., amounts above 50 partially counted and extrapolated", "result": 1.200}, {"measurement": "count of mites fallen down in the hive", "setting": "reference colony C, check-up 20 Sep. 2004, after second formic acid treatment of 6 Sep.", "result": 160}, {"measurement": "count of mites fallen down in the hive", "setting": "reference colony D, check-up 6 Sep. 2004, after formic acid (60%) evaporation of 30 Aug., amounts above 50 partially counted and extrapolated", "result": 600}, {"measurement": "count of mites fallen down in the hive", "setting": "reference colony D, check-up 20 Sep. 2004, after second formic acid treatment of 6 Sep.", "result": 40}, {"measurement": "count of mites fallen down in the hive", "setting": "reference colony E, check-up 6 Sep. 2004, after formic acid (60%) evaporation of 30 Aug., amounts above 50 partially counted and extrapolated", "result": 400}, {"measurement": "count of mites fallen down in the hive", "setting": "reference colony E, check-up 20 Sep. 2004, after second formic acid treatment of 6 Sep.", "result": 50}, {"measurement": "count of mites fallen down in the hive", "setting": "reference colony F, check-up 6 Sep. 2004, after formic acid (60%) evaporation of 30 Aug.", "result": 50}, {"measurement": "count of mites fallen down in the hive", "setting": "reference colony F, check-up 20 Sep. 2004, after second formic acid treatment of 6 Sep.", "result": 10}, {"measurement": "count of mites fallen down in the hive", "setting": "reference colony G, check-up 6 Sep. 2004, after formic acid (60%) evaporation of 30 Aug., amounts above 50 partially counted and extrapolated", "result": 400}, {"measurement": "count of mites fallen down in the hive", "setting": "reference colony G, check-up 20 Sep. 2004, after second formic acid treatment of 6 Sep.", "result": 100}, {"measurement": "count of mites fallen down in the hive", "setting": "reference colony H, check-up 6 Sep. 2004, after formic acid (60%) evaporation of 30 Aug., amounts above 50 partially counted and extrapolated", "result": 500}, {"measurement": "count of mites fallen down in the hive", "setting": "reference colony H, check-up 20 Sep. 2004, after second formic acid treatment of 6 Sep.", "result": 240}, {"measurement": "count of mites fallen down in the hive", "setting": "reference colony I, check-up 6 Sep. 2004, after formic acid (60%) evaporation of 30 Aug.", "result": 50}, {"measurement": "count of mites fallen down in the hive", "setting": "reference colony I, check-up 20 Sep. 2004, after second formic acid treatment of 6 Sep.", "result": 38}, {"measurement": "count of mites fallen down in the hive", "setting": "reference colony J, check-up 6 Sep. 2004, after formic acid (60%) evaporation of 30 Aug., amounts above 50 partially counted and extrapolated", "result": 200}, {"measurement": "count of mites fallen down in the hive", "setting": "reference colony J, check-up 20 Sep. 2004, after second formic acid treatment of 6 Sep.", "result": 44}, {"measurement": "count of mites fallen down in the hive", "setting": "reference colony K, check-up 6 Sep. 2004, after formic acid (60%) evaporation of 30 Aug., amounts above 50 partially counted and extrapolated", "result": 200}, {"measurement": "count of mites fallen down in the hive", "setting": "reference colony K, check-up 20 Sep. 2004, after second formic acid treatment of 6 Sep.", "result": 60}, {"measurement": "count of mites fallen down in the hive", "setting": "reference colony L, check-up 6 Sep. 2004, after formic acid (60%) evaporation of 30 Aug., amounts above 50 partially counted and extrapolated", "result": 200}, {"measurement": "count of mites fallen down in the hive", "setting": "reference colony L, check-up 20 Sep. 2004, after second formic acid treatment of 6 Sep.", "result": 100}]}]}
